Assay results from the METLIN SMRT retention time set (Domingo-Almenara et al. 2019).

Experiment: gradient 5% acetonitrile 3 min, to 50% in 2 min, to 85% in 15 min, held 3 min, 100 µL/min
Details: column: Zorbax Extend-C18 2.1 x 50 mm; eluents: water / acetonitrile, 0.1% formic acid
How it was run: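 Retention times come from adduct peaks that were picked computationally and then checked by hand. The standards, pure and pooled in mixtures of ~100 molecules, were run on a Zorbax Extend-C18 column (2.1 × 50 mm, 1.8 μm) at 100 μL/min with water and acetonitrile, each with 0.1% formic acid. Detection was by quadrupole time-of-flight mass spectrometry in positive and negative ionization mode, with a dead volume of 40 μL and a dwell volume of 900 μL.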

| Structure (SMILES) | RP-LC retention time |
| --- | --- |
| COc1ccc(S(=O)(=O)N2CCC(c3cc4n(n3)CCCN(C)C4=O)CC2)cc1 | 720 s |
| Cc1cccc(NC(=O)Cc2nnc(-c3cnccn3)o2)c1C | 678 s |
| COc1cc2nc(C(=O)N3CCCCC3)cc(Nc3cc(C)cc(C)c3)c2cc1OC | 760 s |
| COc1ccc(Cl)cc1S(=O)(=O)N1CCCC(Cn2cnc3cccnc32)C1 (configuration not stated) | 708 s |
| COc1ccc(-c2nnc3sc(COc4ccc(Br)cc4)nn23)cc1 | 1060 s |
| COc1ccc(N2CC(c3nc(-c4cccc(OC)c4OC)no3)CC2=O)cc1 (configuration not stated) | 870 s |
| O=C(NCc1cccc(Cl)c1)c1c(O)c2cccnc2[nH]c1=O | 954 s |
| CCN(CC)CCNCc1ccc(-c2ccc(Cl)cc2)o1 | 591 s |
| CN(C)CCNC(=O)c1ccc2c(c1)N(Cc1ccc(F)cc1)C(=O)CO2 | 616 s |
| CCn1nc(C)c(CCNC(=O)Nc2ccccc2C(F)(F)F)c1C | 672 s |
| CCOc1ccccc1NC(=O)C1CCN(c2cnc(N3CCCCC3)nc2)CC1 | 928 s |
| Cc1ccc2c(C(=O)NCCc3cccnc3)cc(NC(=O)C(C)C)cc2n1 | 550 s |
| COc1ccc(C2Cn3cnc(C(=O)N4CCC(C(=O)NCC5CCCCC5)CC4)c3CO2)cc1 (configuration not stated) | 821 s |
| CCc1ccc(NS(=O)(=O)c2cc3c(s2)CCN(C(=O)C2CCC2)C3)cc1 | 859 s |
| CC1CCN(S(=O)(=O)c2cc(C(=O)Nc3ccc(F)c(Cl)c3)n(C)c2)CC1 | 1170 s |
| Cc1ccc(NC(=O)c2cn3c(n2)CCCC3)c(C)c1 | 644 s |
| COc1ccc(-c2nc(-c3cccc(-c4ccnn4C)c3)no2)c(C)c1 | 1210 s |
| COCCNC(=O)Cc1ccc(NS(=O)(=O)c2ccccc2Cl)cc1 | 676 s |
| CN(C)c1ncccc1C(=O)Nc1ccc(F)cc1 | 610 s |
| CC(C)Cc1nc(N2CCNCC2)c(C#N)c2c1COC(C)(C)C2 | 683 s |
| Cc1nc(C(=O)Nc2ccc(N3CCOCC3)cc2)c(C)n1C1CCN(C)CC1 | 555 s |

| Structure (SMILES) | RP-LC retention time |
| --- | --- |
| COC[C@@H]1CN(c2cnccn2)C[C@H]1C(=O)NCC1CC1 | 594 s |
| CCn1c(=O)c(C)nc2cc(-c3noc(-c4sccc4C)n3)ccc21 | 1080 s |
| CCNc1cc(C)nc(N2CCN(C(=O)C(C)C)CC2)n1 | 598 s |
| O=C(NCCOc1ccc(-c2cccs2)nn1)NCc1ccccc1 | 734 s |
| Cc1ccc(-c2nc(Nc3ccc(C)c(Cl)c3)sc2CC(=O)O)cc1 | 1100 s |
| COc1ccc(-c2cn3ccn(-c4cc(C)cc(C)c4)c(=O)c3n2)cc1OC | 797 s |
| Cc1ccn2cc(C(=O)NCCCN3CCCC3=O)nc2c1 | 535 s |
| Cc1cccc(NC(=O)c2cc(C)n3nccc3n2)c1C | 995 s |
| Cc1ccc(S(=O)(=O)N2CCC(C)CC2)cc1-c1nnc(-c2ccc(F)cc2)o1 | 1220 s |
| O=C(NC1CCCC1)c1nc(C(=O)N2CCN(c3ncccn3)CC2)cs1 | 759 s |
| COc1ccc(NC(=O)C2CCN(S(=O)(=O)c3cc4c(cc3C)NC(=O)CO4)CC2)cc1 | 754 s |
| CCS(=O)(=O)N1CCCC(Cn2cc(COc3ccc4c(c3)CCC4)nn2)C1 (configuration not stated) | 963 s |
| COCCCNC(=O)C1CCCN(c2nccnc2Sc2ccccc2)C1 (configuration not stated) | 849 s |
| CCN1C(=O)c2cccnc2Sc2cc(CNC(=O)c3sc(C)nc3C)ccc21 | 681 s |
| O=C1COc2cc(S(=O)(=O)N3CCC(C(=O)N4CCOCC4)CC3)c(Cl)cc2N1 | 659 s |
| COCCn1c(C)c(C)c(S(=O)(=O)c2ccc(F)cc2)c1NC(=O)C1CCCO1 (configuration not stated) | 839 s |
| CCc1ccc(C(C)NC(=O)C2CCN(c3cncnc3N3CCOCC3)CC2)cc1 (configuration not stated) | 697 s |
| COc1ccc(OC)c(CNC(=O)C2CCCN2S(=O)(=O)c2cc3c(cc2C)NC(=O)CO3)c1 (configuration not stated) | 730 s |
| O=S(=O)(NCC(O)c1ccc(C(F)(F)F)cc1)c1ccc2c(c1)OCCO2 (configuration not stated) | 817 s |
| COc1cc(-c2nc3ncccn3c2NC2CCCC2)cc(OC)c1OC | 705 s |

Results, then the molecule that gave them:

| RP-LC retention time | Structure (SMILES) |
| --- | --- |
| 592 s | O=C(O)c1cc2cc(Cc3cccnc3)ccc2o1 |
| 1060 s | O=C(CN1CCCCC1c1nc(-c2cccc(F)c2)no1)NCc1cccs1 (configuration not stated) |
| 581 s | Cc1nc2cc(N3CCCC(C(=O)N4CCN(c5ccccn5)CC4)C3)cnc2nc1C (configuration not stated) |
| 643 s | O=C(CCS(=O)(=O)c1ccccc1)Nc1cc(-c2ccco2)nn1CCO |
| 826 s | CCc1nnc(-c2ccc(NC(=O)c3cc4ccccc4o3)cc2)o1 |
| 822 s | COc1ccc(-c2cc3c4nnc(CCC(=O)NCc5ccccc5C(F)(F)F)n4ccn3n2)cc1 |
| 577 s | O=C(O)CSc1nnc(COc2cccc3cccnc23)n1-c1ccccc1 |
| 678 s | Cc1nn(C(C)C(=O)NCCCN(C)Cc2ccccc2)c(=O)c2nn(-c3ccccc3)c(C)c12 (configuration not stated) |
| 720 s | Cc1nc(-c2ccc(F)cc2)nc2c1CCC(=O)N2Cc1ccco1 |
| 1030 s | CCn1ccc2ccc(CCC(=O)N3CCN(c4ccccc4)CC3)cc21 |
| 735 s | O=C1CCCc2nc(N3CCN(c4ccccn4)CC3)nc(Nc3ccccc3)c21 |
| 871 s | COc1ccc(NC(=O)N2CCCC2c2nc(-c3ccccc3OC)no2)c(OC)c1 (configuration not stated) |
| 693 s | C=C(C)CN1CCN(c2cc(C)nc3c(C)c(-c4ccc(Cl)cc4)nn23)CC1 |
| 820 s | CCOc1ccc(C(=O)NC2CCN(c3cc(-c4ccc(Cl)cc4)[nH]n3)C2)cc1 (configuration not stated) |
| 571 s | O=C1CC(Nc2ccc(N3CCCCC3)cc2)C(=O)N1c1ccccc1F (configuration not stated) |
| 961 s | Cc1ccc(C)c(NC(=O)Cn2nc3cc(-c4ccccc4)nc(C)n3c2=O)c1 |
| 576 s | O=C(c1cc2ccccc2[nH]1)N1CCN(Cc2nc3ccccc3[nH]2)CC1 |
| 706 s | O=C(Nc1ccc2c(c1)OCO2)N1CCC(N2CCN(Cc3ccccc3)C(=O)C2=O)CC1 |
| 773 s | Cc1ccc(Cl)cc1NC(=O)N1CC=C(c2cn(C)c3ncccc23)CC1 |
| 622 s | CN(C)C(=O)c1n[nH]c2c1CN(C(=O)c1ccc(F)cc1)CC2 |
| 594 s | O=C(Nc1cccnc1)C1CCCN(S(=O)(=O)c2c[nH]c(C(=O)N3CCCC3)c2)C1 (configuration not stated) |
| 665 s | COc1ccccc1-c1cc(C(=O)N2CCN(c3cc(=O)n(C)c(=O)n3C)CC2)[nH]n1 |
| 625 s | O=C(c1ccc(-c2ccsc2)nc1)N1CCN(C2CCCCC2)CC1 |
| 835 s | Cc1ccc(CNC(=O)CN2CCN(Cc3ccc(F)cc3)C2=O)cc1C |
| 759 s | Cc1ccc(C)c(C(=O)NCC(C)(O)c2ccccc2)c1 (configuration not stated) |
| 963 s | O=C(c1csc(N2CCN(c3ccc(F)cc3)CC2)n1)N1CCCC1 |
